Data reported in ChEMBL document CHEMBL1799989 (Bioorg Med Chem Lett, 2011).
Where “and” joins values, the source holds several entries; their conditions need not be identical. Identical values can stand only once.

Tests used:
[1] = (§1) Metabolic stability in human liver microsomes assessed as compound remaining at 2 uM after 45 mins by LC/MS analysis in presence of NADPH; assay type: ADME, Microsome; settings: liver microsomes, read-out: Stability
Rattus norvegicus [2] = test: Antiarthritic activity in Lewis rat assessed as inhibition of streptococcal cell wall-induced paw swelling at 10 mg/kg/day, po administered on day 10 of streptococcal cell wall challenge continued until day 21 by plethysmometer; assay type: functional
PBMC = test: Antiinflammatory activity in human PBMC assessed as inhibition of LPS-induced TNFalpha release pretreated for 1 hr before LPS treatment measured after 18 hrs; assay type: functional, cell-based
[3] = target: Mitogen-activated protein kinase 14 (Homo sapiens, UniProt Q16539); test: Inhibition of p38alpha assessed as phosphorylation FITC-labeled Hsp27 after 60 mins by fluorescence based cascade assay
Rattus norvegicus [4] = test: Antiinflammatory activity in fasted Lewis rat assessed as inhibition of LPS-induced TNFalpha production at 5 mg/kg, po administered 4 hrs prior LPS challenge measured after 90 mins by ELISA; assay type: functional; settings: for inhibition in vivo at 5 mg/kg: Rattus norvegicus, Lewis, po
[5] = (§2) Metabolic stability in rat liver microsomes assessed as compound remaining at 2 uM after 45 mins by LC/MS analysis in presence of NADPH; assay type: ADME, Microsome; settings: liver microsomes, read-out: Stability
Rattus norvegicus [6] = test: Antiarthritic activity in Lewis rat assessed as inhibition of streptococcal cell wall-induced paw swelling at 60 mg/kg/day, po administered on day 10 of streptococcal cell wall challenge continued until day 21 by plethysmometer; assay type: functional
Rattus norvegicus [7] = test: Antiarthritic activity in Lewis rat assessed as inhibition of streptococcal cell wall-induced paw swelling at 30 mg/kg/day, po administered on day 10 of streptococcal cell wall challenge continued until day 21 by plethysmometer; assay type: functional
[8] = Half life in Beagle dog administered as crystalline form; assay type: ADME, organism-based, Canis lupus familiaris; settings: in vivo
[9] = Apparent permeability across apical to basolateral side in human Caco2 cells at 1 uM; assay type: ADME, cell-based; settings: Caco-2
[10] = Solubility of the compound in phosphate buffer at pH 7; assay type: physicochemical
[11] = Oral bioavailability in Sprague-Dawley rat administered as crystalline form; assay type: ADME, organism-based; settings: in vivo
[12] = Half life in cynomolgus monkey administered as crystalline form; assay type: ADME, organism-based, Macaca fascicularis; settings: in vivo
[13] = Half life in Sprague-Dawley rat administered as crystalline form; assay type: ADME, organism-based; settings: in vivo
Liver microsomes [14] = test: as §1; assay type: ADME, Microsome; settings: microsomes, 0.75 h, 2 µM
[15] = Apparent permeability across apical to basolateral side in human Caco2 cells at 100 uM; assay type: ADME, cell-based; settings: Caco-2
[16] = Oral bioavailability in Sprague-Dawley rat at 2 mg/kg administered as solution; assay type: ADME, organism-based; settings: in vivo
[17] = Oral bioavailability in Sprague-Dawley rat at 15 mg/kg administered as solution; assay type: ADME, organism-based; settings: in vivo
[18] = Oral bioavailability in cynomolgus monkey administered as solution; assay type: ADME, organism-based, Macaca fascicularis; settings: in vivo
Rattus norvegicus [19] = test: Antiarthritic activity in Lewis rat assessed as inhibition of streptococcal cell wall-induced paw swelling at 2 mg/kg/day, po administered on day 10 of streptococcal cell wall challenge continued until day 21 by plethysmometer; assay type: functional
[20] = Oral bioavailability in Beagle dog administered as solution; assay type: ADME, organism-based, Canis lupus familiaris; settings: in vivo
[21] = Oral bioavailability in cynomolgus monkey administered as crystalline form; assay type: ADME, organism-based, Macaca fascicularis; settings: in vivo
Liver microsomes [22] = test: as §2; assay type: ADME, Microsome; settings: microsomes, 0.75 h, 2 µM

Sequence of Mitogen-activated protein kinase 14 (Q16539 whole entry): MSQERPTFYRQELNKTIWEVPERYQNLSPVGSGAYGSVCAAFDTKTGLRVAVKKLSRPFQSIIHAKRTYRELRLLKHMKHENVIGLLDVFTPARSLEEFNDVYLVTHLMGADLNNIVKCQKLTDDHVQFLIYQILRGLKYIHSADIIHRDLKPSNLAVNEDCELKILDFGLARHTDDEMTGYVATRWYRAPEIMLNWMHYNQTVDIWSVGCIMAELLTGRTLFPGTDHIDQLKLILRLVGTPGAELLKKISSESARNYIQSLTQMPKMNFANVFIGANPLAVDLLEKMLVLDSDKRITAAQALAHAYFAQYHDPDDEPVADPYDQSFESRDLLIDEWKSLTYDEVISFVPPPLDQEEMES

## Cc1ccc(C(N)=O)cc1-n1c(C)cc(OCc2ccc(F)cc2F)c(Br)c1=O
[1]
  remaining at 0.75 h, 2 µM: 84%
Rattus norvegicus [2]
  inhibition in vivo at 10 mg/kg/day: 87%
PBMC; Homo sapiens, PBMC
  IC50: 0.0025 µM
[3]
  IC50: 0.002 µM
Rattus norvegicus [4]
  inhibition in vivo at 5 mg/kg: 98%
[5]
  remaining at 0.75 h, 2 µM: 100%

## Cc1ccc(C(=O)N(C)C)cc1-n1c(C)cc(OCc2ccc(F)cc2F)c(Br)c1=O
[1]
  remaining at 0.75 h, 2 µM: 75%
PBMC; Homo sapiens, PBMC
  IC50: 0.0285 µM
Rattus norvegicus [6]
  inhibition in vivo at 60 mg/kg/day: 74%
[3]
  IC50: 0.0095 µM
Rattus norvegicus [4]
  inhibition in vivo at 5 mg/kg: 96%
[5]
  remaining at 0.75 h, 2 µM: 71%

## CNC(=O)c1ccc(-n2c(C)cc(OCc3ccc(F)cc3F)c(Br)c2=O)c(C)c1
[1]
  remaining at 0.75 h, 2 µM: 93%
PBMC; Homo sapiens, PBMC
  IC50: 0.156 µM
[3]
  IC50: 0.034 µM
Rattus norvegicus [4]
  inhibition in vivo at 5 mg/kg: 54%
[5]
  remaining at 0.75 h, 2 µM: 86%

## CNC(=O)c1cccc(-n2c(C)cc(OCc3ccc(F)cc3F)c(Br)c2=O)c1C
[1]
  remaining at 0.75 h, 2 µM: 89%
PBMC; Homo sapiens, PBMC
  IC50: 0.193 µM
[3]
  IC50: 0.0485 µM
Rattus norvegicus [4]
  inhibition in vivo at 5 mg/kg: 61%
[5]
  remaining at 0.75 h, 2 µM: 91%

## CNC(=O)c1ccc(F)c(-n2c(C)cc(OCc3ccc(F)cc3F)c(Br)c2=O)c1
PBMC; Homo sapiens, PBMC
  IC50: 0.046 µM
[3]
  IC50: 0.0085 µM
Rattus norvegicus [4]
  inhibition in vivo at 5 mg/kg: 83%

## CNC(=O)c1ccc(Cl)c(-n2c(C)cc(OCc3ccc(F)cc3F)c(Br)c2=O)c1
PBMC; Homo sapiens, PBMC
  IC50: 0.018 µM
[3]
  IC50: 0.003 µM
Rattus norvegicus [7]
  inhibition in vivo at 30 mg/kg/day: 90%
Rattus norvegicus [4]
  inhibition in vivo at 5 mg/kg: 89%

## CNC(=O)c1ccc(OC)c(-n2c(C)cc(OCc3ccc(F)cc3F)c(Br)c2=O)c1
PBMC; Homo sapiens, PBMC
  IC50: 0.107 µM
[3]
  IC50: 0.021 µM
Rattus norvegicus [4]
  inhibition in vivo at 5 mg/kg: 20%

## CNC(=O)c1ccc(C(=O)O)c(-n2c(C)cc(OCc3ccc(F)cc3F)c(Br)c2=O)c1
PBMC; Homo sapiens, PBMC
  IC50: > 25 µM
[3]
  IC50: > 10 µM

## CNC(=O)c1ccc(CO)c(-n2c(C)cc(OCc3ccc(F)cc3F)c(Br)c2=O)c1
[3]
  IC50: 0.325 µM

## CNC(=O)c1ccc(C)c(-n2c(CO)cc(OCc3ccc(F)cc3F)c(Br)c2=O)c1
PBMC; Homo sapiens, PBMC
  IC50: 0.016 µM
[3]
  IC50: 0.004 µM
Rattus norvegicus [4]
  inhibition in vivo at 5 mg/kg: 1%

## CNC(=O)c1ccc(C)c(-n2c(C)cc(OCc3ccc(F)cc3F)c(Br)c2=O)c1 [PH-797804]
[8]
  half-life: 11.4 h
[9]
  Papp A→B at 1 µM: 100 nm/s
[10]
  solubility: < 5 µg/mL
[11]
  bioavailability: 35.7%
[12]
  half-life: 3.93 h
[13]
  half-life: 2.6 h
Liver microsomes [14]
  Stability: 98% and 92%
[1]
  remaining at 0.75 h, 2 µM: 91%
[15]
  Papp A→B at 100 µM: 250 nm/s
[16]
  bioavailability: > 100%
[17]
  bioavailability: 80.4%
[18]
  bioavailability: 36.2%
Rattus norvegicus [19]
  inhibition in vivo at 2 mg/kg/day: 80%
[20]
  bioavailability: 59.6%
PBMC; pbmc
  IC50: 0.015 µM and 0.0034 µM
[21]
  bioavailability: 23.2%
Rattus norvegicus [4]; 5 mg/kg
  inhibition (INH): 95% and 38%
Liver microsomes [22]
  Stability: 100%
[5]
  remaining at 0.75 h, 2 µM: 95%
